From US9062028B2, “Bicyclic nitrogen containing heteroaryl TGR5 receptor modulators” (Bristol-Myers Squibb Company, priority 2011, dated 2015)
Where a name gives a salt, the structure may show the parent alone.

Target: T1, recombinant human TGR5 (Homo sapiens, UniProt Q8TDU6)
T1 construct: expressed in transfected cells
T1 sequence (Q8TDU6 1-330): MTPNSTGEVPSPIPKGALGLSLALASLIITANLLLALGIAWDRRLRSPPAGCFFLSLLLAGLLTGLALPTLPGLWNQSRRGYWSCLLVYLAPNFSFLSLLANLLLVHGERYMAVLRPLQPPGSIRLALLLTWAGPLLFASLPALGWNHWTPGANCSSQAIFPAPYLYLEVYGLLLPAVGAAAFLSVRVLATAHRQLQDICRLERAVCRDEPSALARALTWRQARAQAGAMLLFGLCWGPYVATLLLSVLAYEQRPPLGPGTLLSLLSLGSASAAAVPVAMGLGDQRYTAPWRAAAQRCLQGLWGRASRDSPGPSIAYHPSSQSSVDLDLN
Test: cAMP assay (cAMP accumulation, HTRF) in CHOK1 cells stably expressing TGR5
Type: cell-based
Settings: CHOK1 cells stably expressing human TGR5, 30 minutes at RT, 1% DMSO
Procedure: The in vitro modulation of recombinant human TGR5 was determined as follows.
A human TGR5 expression construct of human TGR5 was integrated into the genome of a CHOK1 cell line (Invitrogen). Once a stable CHOK1 cell line was generated, the cells were incubated for 5-10 minutes in culture medium consisting of F-12 (Invitrogen#11765-047) supplemented with 10% fetal bovine serum.
On the day of the cAMP accumulation assay, cells stably expressing the […] TGR5 construct were centrifuged at 1000 rpm for 5 minutes. The medium was aspirated and the cells were resuspended in 5 mL of assay buffer (phosphate-buffered saline with Ca^2+ and Mg^2+, Invitrogen#14040). The cells were counted using 1:2 dilution and then adjusted to 0.4-0.5×10^6 cells/mL in assay buffer, if necessary. Isobutylmethylxanthine (IBMX, Sigma#I5879) was added via a 1:5000 dilution to make a 0.1 mM final concentration and then 10 μL of the media were transferred to each well of a 384 well poly-D-lysine coated solid white plate (BD #35-6661) pre-dotted with 100 nL of with the desired concentration of compound added from a concentrated stock dissolved in dimethyl sulfoxide (DMSO) to give a final concentration of 1% DMSO in the assay. The plates were covered and incubated for 30 minutes at RT. cAMP accumulation was measured using the CisBio homogeneous time resolved fluorescence (HTRF) assay kit (#62AM2PEC) following the manufacturer's protocol. Briefly, 5 μl each of the cAMP-HTRF fluorescence detection reagents were added to each well, and the samples were incubated for at least one hour at room temperature. Fluorescence was excited at 320 nm and measured at 665 and 620 nm using the Envision instrument (Perkin Elmer), the fluorescence ratio of 665/620 was calculated and converted to nanomolar concentrations of cAMP in each well by interpolation from a cAMP standard curve. The concentration-response curves and EC50 values were calculated with a four parameter logistic curve fit equation utilizing Excel/XLfit software (Microsoft and IDBS). The EC50 value was calculated as the concentration of agonist which increased the cAMP concentration to a value halfway between the baseline and the maximum.

Row | SMILES | EC50 [nM]
1 | Cc1cccc(OCCCC(=O)N2CCCc3c(-c4cccc(COC(=O)NCC(C)(C)C(=O)O)c4)cccc32)c1C [Example 257, 3-((3-(1-(4-(2,3-Dimethylphenoxy)butanoyl)-1,2,3,4-tetrahydroquinolin-5-yl)benzyloxy)carbonylamino)-2,2-dimethylpropanoic acid] | 682
2 | Cc1cccc(OCCCC(=O)N2CCCc3c(-c4cccc(COC(=O)N[C@@H](CC(=O)O)C(=O)O)c4)cccc32)c1C [Example 268, (S)-2-((3-(1-(4-(2,3-Dimethylphenoxy)butanoyl)-1,2,3,4-tetrahydroquinolin-5-yl)benzyloxy)carbonylamino)succinic acid] | 5020
3 | Cc1cccc(OCCCC(=O)N2CCCc3c(-c4cccc(COC(=O)NC(Cc5c[nH]cn5)C(=O)O)c4)cccc32)c1C (stereo not shown) [Example 283, 2-((3-(1-(4-(2,3-Dimethylphenoxy)butanoyl)-1,2,3,4-tetrahydroquinolin-5-yl)benzyloxy)carbonylamino)-3-(1H-imidazol-4-yl)propanoic acid] | 3180
4 | Cc1cccc(OCCCC(=O)N2CCCc3c(-c4cccc(COC(=O)N[C@H](Cc5c[nH]cn5)C(=O)O)c4)cccc32)c1C [Example 288, (R)-2-((3-(1-(4-(2,3-Dimethylphenoxy)butanoyl)-1,2,3,4-tetrahydroquinolin-5-yl)benzyloxy)carbonylamino)-3-(1H-imidazol-4-yl)propanoic acid] | 3950
5 | Cc1cccc(OCCCC(=O)N2CCCc3c(-c4cccc(COC(=O)NC(CCS)C(=O)O)c4)cccc32)c1C (stereo not shown) [Example 289, 2-((3-(1-(4-(2,3-Dimethylphenoxy)butanoyl)-1,2,3,4-tetrahydroquinolin-5-yl)benzyloxy)carbonylamino)-4-mercaptobutanoic acid] | 2810
6 | Cc1cccc(OCCCC(=O)N2CCCc3c(-c4cccc(COC(=O)NCC(F)(F)C(=O)O)c4)cccc32)c1C [Example 297, 3-((3-(1-(4-(2,3-Dimethylphenoxy)butanoyl)-1,2,3,4-tetrahydroquinolin-5-yl)benzyloxy)carbonylamino)-2,2-difluoropropanoic acid] | 687
7 | Cc1cccc(OCCCC(=O)N2CCCc3c(-c4cccc(COC(=O)NC(CP(=O)(O)O)C(=O)O)c4)cccc32)c1C (stereo not shown) [Example 319, 2-((3-(1-(4-(2,3-Dimethylphenoxy)butanoyl)-1,2,3,4-tetrahydroquinolin-5-yl)benzyloxy)carbonylamino)-3-phosphonopropanoic acid] | 3820
8 | Cc1cccc(OCCCC(=O)N2CCCc3c(-c4cccc(COC(=O)N[C@@H](Cc5ccc(OP(=O)(O)O)cc5)C(=O)O)c4)cccc32)c1C [Example 324, (S)-2-((3-(1-(4-(2,3-Dimethylphenoxy)butanoyl)-1,2,3,4-tetrahydroquinolin-5-yl)benzyloxy)carbonylamino)-3-(4-(phosphonooxy)phenyl)propanoic acid] | 3390
9 | Cc1c(Cl)cccc1OCCOC(=O)N1CC(O)COc2c(-c3cnn(Cc4c(F)cc(C(=O)O)cc4Cl)c3)cccc21 (stereo not shown) [Example 334, 3-Chloro-4-((4-(5-((2-(3-chloro-2-methylphenoxy)ethoxy)carbonyl)-3-hydroxy-2,3,4,5-tetrahydrobenzo[b][1,4]oxazepin-9-yl)-1H-pyrazol-1-yl)methyl)-5-fluorobenzoic acid] | 1260
10 | Cc1cccc(OCCCC(=O)N(C)c2cccc(-c3cnn(Cc4cccc(C(=O)O)c4)c3)c2)c1C [Example 339, 3-((4-(3-(4-(2,3-Dimethylphenoxy)-N-methylbutanamido)phenyl)-1H-pyrazol-1-yl)methyl) benzoic acid] | 2580

Next, values leading:

Row | EC50 [nM] | SMILES
11 | 55 | Cc1c(Cl)cccc1OCCCC(=O)N1CC2CC2c2c(-c3cnn(Cc4cccc(C(=O)NCS(=O)(=O)O)c4)c3)cccc21 (stereo not shown) [Example 222, (3-((4-(3-(4-(3-Chloro-2-methylphenoxy)butanoyl)-1a,2,3,7b-tetrahydro-1H-cyclopropa[c]quinolin-7-yl)-1H-pyrazol-1-yl)methyl)benzamido)methanesulfonic acid]
12 | 608 | Cc1cccc(OCCCC(=O)N2CCCc3c(-c4cccc(COC(=O)NCC(C)C(=O)O)c4)cccc32)c1C (stereo not shown) [Example 270, 3-((3-(1-(4-(2,3-Dimethylphenoxy)butanoyl)-1,2,3,4-tetrahydroquinolin-5-yl)benzyloxy)carbonylamino)-2-methylpropanoic acid]
13 | 646 | Cc1cccc(OCCCC(=O)N2CCCc3c(-c4cccc(COC(=O)NCC[C@H](O)C(=O)O)c4)cccc32)c1C [Example 273, (S)-4-((3-(1-(4-(2,3-Dimethylphenoxy)butanoyl)-1,2,3,4-tetrahydroquinolin-5-yl)benzyloxy)carbonylamino)-2-hydroxybutanoic acid]
14 | 608 | Cc1cccc(OCCCC(=O)N2CCCc3c(-c4cccc(COC(=O)NC(C)CC(=O)O)c4)cccc32)c1C (stereo not shown) [Example 275, 3-((3-(1-(4-(2,3-Dimethylphenoxy)butanoyl)-1,2,3,4-tetrahydroquinolin-5-yl)benzyloxy)carbonylamino) butanoic acid]
15 | 664 | Cc1cccc(OCCCC(=O)N2CCCc3c(-c4cccc(COC(=O)N[C@H](CO)C(=O)O)c4)cccc32)c1C [Example 282, (R)-2-((3-(1-(4-(2,3-Dimethylphenoxy)butanoyl)-1,2,3,4-tetrahydroquinolin-5-yl)benzyloxy)carbonylamino)-3-hydroxypropanoic acid]
16 | 593 | Cc1cccc(OCCCC(=O)N2CCCc3c(-c4cccc(COC(=O)N[C@@H](C)CC(=O)O)c4)cccc32)c1C [Example 302, (S)-3-((3-(1-(4-(2,3-Dimethylphenoxy)butanoyl)-l,2,3,4-tetrahydroquinolin-5-yl)benzyloxy)carbonylamino) butanoic acid]
17 | 638 | Cc1cccc(OCCCC(=O)N2CCCc3c(-c4cccc(COC(=O)N[C@@H](Cc5cncn5C)C(=O)O)c4)cccc32)c1C [Example 316, (S)-2-((3-(1-(4-(2,3-Dimethylphenoxy)butanoyl)-1,2,3,4-tetrahydroquinolin-5-yl)benzyloxy)carbonylamino)-3-(1-methyl-1H-imidazol-5-yl) propanoic acid]
18 | 173 | Cc1c(Cl)cccc1OCCOC(=O)N1CC(F)(F)COc2c(-c3cnn(Cc4c(F)cc(C(=O)O)cc4Cl)c3)cccc21 [Example 336, 3-Chloro-4-((4-(5-((2-(3-chloro-2-methylphenoxy)ethoxy)carbonyl)-3,3-difluoro-2,3,4,5-tetrahydrobenzo[b][1,4]oxazepin-9-yl)-1H-pyrazol-1-yl)methyl)-5-fluorobenzoic acid]
19 | 31 | Cc1c(Cl)cccc1OCCCC(=O)N1C[C@@H]2C[C@@H]2c2c(-c3cnn(Cc4cccc(N5C(=O)CN(CC(=O)O)C5=O)c4)c3)cccc21 [Example 350, 2-(3-(3-((4-((1aR,7bS)-3-(4-(3-Chloro-2-methylphenoxy)butanoyl)-1a,2,3,7b-tetrahydro-1H-cyclopropa[c]quinolin-7-yl)-1H-pyrazol-1-yl)methyl)phenyl)-2,4-dioxoimidazolidin-1-yl) acetic acid]
20 | 196 | Cc1c(Cl)cccc1OCCCC(=O)N1C[C@@H]2C[C@@H]2c2c(-c3cnn(Cc4cccc(N5C(=O)[C@H](CCC[N+](C)(C)C)N(C)C5=O)c4)c3)cccc21 [Example 352, 3-((S)-1-(3-((4-((1aR,7bS)-3-(4-(3-Chloro-2-methylphenoxy)butanoyl)-1a,2,3,7b-tetrahydro-1H-cyclopropa[c]quinolin-7-yl)-1H-pyrazol-1-yl)methyl)phenyl)-3-methyl-2,5-dioxoimidazolidin-4-yl)-N,N,N-trimethylpropan-1-aminium, TFA salt]
21 | 40 | Cc1c(Cl)cccc1OCCCC(=O)N1CCSc2c(-c3cnn(Cc4cccc(C(=O)O)c4)c3)cccc21 [Example 354, 3-((4-(4-(4-(3-Chloro-2-methylphenoxy)butanoyl)-3,4-dihydro-2H-benzo[b] [1,4]thiazin-8-yl)-1H-pyrazol-1-yl)methyl)benzoic acid]
22 | 43 | Cc1c(Cl)cccc1OCCCC(=O)N1CCSc2c(-c3cnn(Cc4c(F)cc(C(=O)O)cc4Cl)c3)cccc21 [Example 358, 3-Chloro-4-((4-(4-(4-(3-chloro-2-methylphenoxy)butanoyl)-3,4-dihydro-2H-benzo[b][1,4]thiazin-8-yl)-1H-pyrazol-1-yl)methyl)-5-fluorobenzoic acid]
